One experiment addresses KIT kinase (Homo sapiens (Human), UniProt P10721). The experiment can be described thus: Competition binding assay (Kd), KIT. The conditions noted are these: competition binding. The method, then:
In certain embodiments, competition binding assays were performed as described in Fabian et al., Nature Biotechnology 2005, 23, 329-336.
Competition binding assays used herein were developed, validated and performed as described in Fabian et al., Nature Biotechnology 2005, 23, 329-336. Kinases were produced as fusions to T7 phage (See, Fabian et al. or WO04/015142) or alternatively, the kinases were expressed in HEK-293 cells and subsequently tagged with DNA for PCR detection (See, WO08/005,310). […] The liganded beads were blocked with excess biotin and washed with blocking buffer (SeaBlock (Pierce), 1% BSA, 0.05% Tween 20, 1 mM DTT) to remove unbound ligand and to reduce non-specific binding. […] Test compounds were prepared as 100× stocks in DMSO and diluted into the aqueous environment. Kds were determined using an eleven point threefold serial dilutions. DMSO or control compounds were was added to control assays lacking a test compound. […] The kinase concentration in the eluates was measured by quantitative PCR. […]

In another experiment the target is FLT3 kinase (Homo sapiens (Human), UniProt P36888). The experiment can be described thus: Competition binding assay (Kd), FLT3. The following applies: competition binding.

Bounds are passed on as bounds.

Chain of FLT3 kinase (P36888 27-993): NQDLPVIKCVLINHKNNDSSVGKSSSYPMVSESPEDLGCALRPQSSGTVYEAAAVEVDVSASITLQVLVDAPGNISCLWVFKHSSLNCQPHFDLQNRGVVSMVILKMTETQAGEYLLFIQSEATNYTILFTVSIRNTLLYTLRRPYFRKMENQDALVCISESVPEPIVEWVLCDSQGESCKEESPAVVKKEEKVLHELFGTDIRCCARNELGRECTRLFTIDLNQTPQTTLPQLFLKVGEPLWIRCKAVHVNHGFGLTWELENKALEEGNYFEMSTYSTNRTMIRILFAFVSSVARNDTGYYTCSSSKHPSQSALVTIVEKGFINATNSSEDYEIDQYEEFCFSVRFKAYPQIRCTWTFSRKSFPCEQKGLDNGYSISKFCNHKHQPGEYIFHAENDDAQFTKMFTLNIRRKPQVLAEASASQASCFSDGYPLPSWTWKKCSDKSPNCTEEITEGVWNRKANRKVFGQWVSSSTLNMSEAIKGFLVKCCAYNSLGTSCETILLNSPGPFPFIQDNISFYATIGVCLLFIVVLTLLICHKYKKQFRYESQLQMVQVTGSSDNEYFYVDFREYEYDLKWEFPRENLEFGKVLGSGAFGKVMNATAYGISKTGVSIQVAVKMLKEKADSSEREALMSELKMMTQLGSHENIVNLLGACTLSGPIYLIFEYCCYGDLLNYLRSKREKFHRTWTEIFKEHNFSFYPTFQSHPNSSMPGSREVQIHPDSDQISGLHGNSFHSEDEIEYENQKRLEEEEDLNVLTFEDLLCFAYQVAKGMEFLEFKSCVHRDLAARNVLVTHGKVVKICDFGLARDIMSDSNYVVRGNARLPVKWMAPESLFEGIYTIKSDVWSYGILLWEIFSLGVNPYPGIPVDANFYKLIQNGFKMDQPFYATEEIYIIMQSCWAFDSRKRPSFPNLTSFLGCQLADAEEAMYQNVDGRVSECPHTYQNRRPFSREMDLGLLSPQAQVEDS
Chain of KIT kinase (P10721 26-976): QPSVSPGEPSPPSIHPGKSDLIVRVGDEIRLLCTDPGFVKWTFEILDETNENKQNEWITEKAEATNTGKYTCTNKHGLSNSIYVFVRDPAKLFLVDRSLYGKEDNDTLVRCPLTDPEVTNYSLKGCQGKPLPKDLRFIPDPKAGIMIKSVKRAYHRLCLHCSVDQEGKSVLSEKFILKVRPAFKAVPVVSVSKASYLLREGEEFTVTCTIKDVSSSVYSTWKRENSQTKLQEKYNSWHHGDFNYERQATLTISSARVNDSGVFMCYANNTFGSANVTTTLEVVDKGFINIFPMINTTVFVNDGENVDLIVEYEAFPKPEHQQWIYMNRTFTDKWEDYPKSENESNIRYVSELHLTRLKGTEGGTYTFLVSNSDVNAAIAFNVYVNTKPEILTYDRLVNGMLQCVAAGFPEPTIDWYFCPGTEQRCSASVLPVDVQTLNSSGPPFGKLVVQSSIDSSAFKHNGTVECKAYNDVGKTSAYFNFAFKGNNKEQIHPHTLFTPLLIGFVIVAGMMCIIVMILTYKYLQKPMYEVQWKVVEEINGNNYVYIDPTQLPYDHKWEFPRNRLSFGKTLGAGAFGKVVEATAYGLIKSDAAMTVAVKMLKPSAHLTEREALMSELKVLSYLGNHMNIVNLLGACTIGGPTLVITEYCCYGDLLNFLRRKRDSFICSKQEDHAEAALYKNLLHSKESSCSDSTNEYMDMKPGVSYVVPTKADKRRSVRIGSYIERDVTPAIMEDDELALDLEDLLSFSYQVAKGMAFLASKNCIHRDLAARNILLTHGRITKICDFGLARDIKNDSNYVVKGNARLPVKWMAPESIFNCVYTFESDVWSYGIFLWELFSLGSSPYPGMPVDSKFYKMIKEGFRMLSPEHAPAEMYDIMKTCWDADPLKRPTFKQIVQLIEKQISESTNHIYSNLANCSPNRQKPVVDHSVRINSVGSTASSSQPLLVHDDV

With `COc1cc2cc(-c3ccc(CC(=O)Nc4cc(C(C)(C)C(F)(F)F)on4)c(F)c3)cnc2cc1OCCNCCO` [Example 201, 2-[2-fluoro-4-[7-[2-(2-hydroxyethylamino)ethoxy]-6-methoxy-3-quinolyl]phenyl]-N-[5-(2,2,2-trifluoro-1,1-dimethyl-ethyl)isoxazol-3-yl]acetamide], the Kd at KIT kinase and on FLT3 kinase was less than 5 nM each time.
In the case of `COc1cc2ncc(-c3ccc(CC(=O)Nc4cc(C5(C(F)(F)F)CC5)on4)c(F)c3)nc2cc1OC[C@@H](C)O` [Example 202, 2-[2-fluoro-4-[7-[(2R)-2-hydroxypropoxy]-6-methoxy-quinoxalin-2-yl]phenyl]-N-[5-[1-(trifluoromethyl)cyclo-propyl]isoxazol-3-yl]acetamide], the Kd on KIT kinase and on FLT3 kinase was less than 5 nM throughout.
Turning to `COc1cc2ncc(-c3ccc(CC(=O)Nc4cc(C(C)(C)C(F)(F)F)on4)c(F)c3)nc2cc1OCCCN1CCOCC1` [Example 203, 2-[2-fluoro-4-[6-methoxy-7-(3-morpholino-propoxy)quinoxalin-2-yl]phenyl]-N-[5-(2,2,2-trifluoro-1,1-dimethyl-ethyl)isoxazol-3-yl]acetamide], the Kd on KIT kinase and on FLT3 kinase was less than 5 nM in each case.
For `COc1cc2ncc(-c3ccc(CC(=O)Nc4cc(C(C)(C)C(F)(F)F)on4)c(F)c3)cc2cc1OCCN` [Example 204, 2-[4-[6-(2-aminoethoxy)-7-methoxy-3-quinolyl]-2-fluoro-phenyl]-N-[5-(2,2,2-trifluoro-1,1-dimethyl-ethyl)isoxazol-3-yl]acetamide], the Kd at KIT kinase and at FLT3 kinase was less than 5 nM throughout.
With `COc1cc2ncc(-c3ccc(CC(=O)Nc4cc(C(C)(C)C(F)(F)F)on4)c(F)c3)cc2cc1OCCNC(C)=O` [Example 205, 2-[4-[6-(2-acetamidoethoxy)-7-methoxy-3-quinolyl]-2-fluoro-phenyl]-N-[5-(2,2,2-trifluoro-1,1-dimethyl-ethyl)isoxazol-3-yl]acetamide], the Kd on KIT kinase and on FLT3 kinase was less than 5 nM each time.
`COc1cc2ncc(-c3ccc(CC(=O)Nc4cc(C(C)(C)C(F)(F)F)on4)c(F)c3)cc2cc1OCCN1CCC(O)CC1` [Example 206, 2-[2-fluoro-4-[6-[2-(4-hydroxy-1-piperidyl)ethoxy]-7-methoxy-3-quinolyl]phenyl]-N-[5-(2,2,2-trifluoro-1,1-dimethyl-ethyl)isoxazol-3-yl]acetamide]: the dissociation constant Kd on KIT kinase and at FLT3 kinase was less than 5 nM in each case.
On to `COc1cc2ncc(-c3ccc(CC(=O)Nc4cc(C(C)(C)C(F)(F)F)on4)c(F)c3)cc2cc1OCCN1CCC(F)(F)CC1` [Example 207, 2-[4-[6-[2-(4,4-difluoro-1-piperidyl)ethoxy]-7-methoxy-3-quinolyl]-2-fluoro-phenyl]-N-[5-(2,2,2-trifluoro-1,1-dimethyl-ethyl)isoxazol-3-yl]acetamide], for which the equilibrium dissociation constant (Kd) on KIT kinase was 20 to 50 nM; on FLT3 kinase, less than 5 nM.
The corresponding values for `COc1cc2nc(-c3ccc(CC(=O)Nc4cc(C5(C(F)(F)F)CC5)on4)c(F)c3)cnc2cc1OC[C@@H](C)O` [Example 208, 2-[2-fluoro-4-[6-[(2R)-2-hydroxypropoxy]-7-methoxy-quinoxalin-2-yl]phenyl]-N-[5-[1-(trifluoro-methyl)cyclopropyl]isoxazol-3-yl]acetamide] are less than 5 nM and less than 5 nM.
For `COc1cc2nc(-c3ccc(CC(=O)Nc4cc(C(C)(C)C(F)(F)F)on4)c(F)c3)cnc2cc1OCCCN1CCOCC1` [Example 209, 2-[2-fluoro-4-[7-methoxy-6-(3-morpholino-propoxy)quinoxalin-2-yl]phenyl]-N-[5-(2,2,2-trifluoro-1,1-dimethyl-ethyl)isoxazol-3-yl]acetamide] the same measures were less than 5 nM and less than 5 nM.
`COc1cc2nc(-c3ccc(CC(=O)Nc4cc(C(C)(C)C(F)(F)F)on4)c(F)c3)cnc2cc1OCCn1cncn1` [Example 210, 2-[2-fluoro-4-[7-methoxy-6-[2-(1,2,4-triazol-1-yl)ethoxy]quinoxalin-2-yl]phenyl]-N-[5-(2,2,2-trifluoro-1,1-dimethyl-ethyl)isoxazol-3-yl]acetamide]: the Kd on KIT kinase and on FLT3 kinase was less than 5 nM throughout.
For the compound `COc1cc2nc(-c3ccc(CC(=O)Nc4cc(C(C)(C)C(F)(F)F)on4)c(F)c3)cnc2cc1OCCn1cnnc1` [Example 211, 2-[2-fluoro-4-[7-methoxy-6-[2-(1,2,4-triazol-4-yl)ethoxy]quinoxalin-2-yl]phenyl]-N-[5-(2,2,2-trifluoro-1,1-dimethyl-ethyl)isoxazol-3-yl]acetamide], the Kd on KIT kinase and at FLT3 kinase was less than 5 nM in each case.
As for `COc1cc2nc(-c3ccc(CC(=O)Nc4cc(C5(C(F)(F)F)CC5)on4)c(F)c3)cnc2cc1OCCCN1CCOCC1` [Example 212, 2-[2-fluoro-4-[7-methoxy-6-(3-morpholino-propoxy)quinoxalin-2-yl]phenyl]-N-[5-[1-(trifluoro-methyl)cyclopropyl]isoxazol-3-yl]acetamide], the Kd on KIT kinase and on FLT3 kinase was less than 5 nM in each case.
On to `COc1cc2ncc(-c3ccc(CC(=O)Nc4cc(C5(C(F)(F)F)CC5)on4)c(F)c3)nc2cc1OCCCN1CCOCC1` [Example 213, 2-[2-fluoro-4-[6-methoxy-7-(3-morpholino-propoxy)quinoxalin-2-yl]phenyl]-N-[5-[1-(trifluoro-methyl)cyclopropyl]isoxazol-3-yl]acetamide], for which the dissociation constant (Kd) at KIT kinase and on FLT3 kinase was less than 5 nM each time.
Regarding `COc1cc2ncc(-c3ccc(CC(=O)Nc4cc(C5(C(F)(F)F)CC5)on4)c(F)c3)nc2cc1OCCCNC(C)=O` [Example 214, 2-[4-[7-(3-acetamidopropoxy)-6-methoxy-quinoxalin-2-yl]-2-fluoro-phenyl]-N-[5-[1-(trifluoromethyl)cyclo-propyl]isoxazol-3-yl]acetamide], the Kd at KIT kinase and at FLT3 kinase was less than 5 nM each time.
Turning to `COc1cc2nc(-c3ccc(CC(=O)Nc4cc(C(C)(C)C)on4)cc3)cnc2cc1OCCN1CCOCC1` [Example 215, N-(5-tert-butylisoxazol-3-yl)-2-[4-[7-methoxy-6-(2-morpholino-ethoxy)quinoxalin-2-yl]phenyl]acetamide], the equilibrium dissociation constant (Kd) on KIT kinase and on FLT3 kinase was less than 5 nM throughout.
On to `COc1cc2nc(-c3ccc(CC(=O)Nc4cc(C5(C(F)(F)F)CC5)on4)c(F)c3)cnc2cc1OCCN1CCS(=O)(=O)CC1` [Example 216, 2-[4-[6-[2-(1,1-dioxo-1,4-thiazinan-4-yl)ethoxy]-7-methoxy-quinoxalin-2-yl]-2-fluoro-phenyl]-N-[5-[1-(trifluoromethyl)cyclo-propyl]isoxazol-3-yl]acetamide], for which the dissociation constant Kd at KIT kinase and on FLT3 kinase was less than 5 nM each time.
Consider `COc1cc2ncc(-c3ccc(CC(=O)Nc4cc(C(C)(C)C(F)(F)F)on4)cc3F)nc2cc1OC` [Example 217, 2-[4-(6,7-dimethoxyquinoxalin-2-yl)-3-fluoro-phenyl]-N-[5-(2,2,2-trifluoro-1,1-dimethyl-ethyl)isoxazol-3-yl]acetamide], for which the Kd on KIT kinase and on FLT3 kinase was less than 5 nM in each case.
As to `COc1cc2ncc(-c3cc(F)c(CC(=O)Nc4cc(C5(C(F)(F)F)CC5)on4)cc3F)nc2cc1OC` [Example 218, 2-[4-(6,7-dimethoxyquinoxalin-2-yl)-2,5-difluoro-phenyl]-N-[5-[1-(trifluoro-methyl)cyclopropyl]isoxazol-3-yl]acetamide], the Kd on KIT kinase and on FLT3 kinase was less than 5 nM throughout.
For the compound `COc1cc2ncc(-c3cc(F)c(CC(=O)Nc4cc(C(C)(C)C(F)(F)F)on4)cc3F)nc2cc1OC` [Example 219, 2-[4-(6,7-dimethoxyquinoxalin-2-yl)-2,5-difluoro-phenyl]-N-[5-(2,2,2-trifluoro-1,1-dimethyl-ethyl)isoxazol-3-yl]acetamide], the Kd on KIT kinase and on FLT3 kinase was less than 5 nM in each case.
As to `CC(=O)NCCOc1cc2ncc(-c3ccc(CC(=O)Nc4cc(C(C)(C)C(F)(F)F)on4)c(F)c3)nc2cc1OCCNC(C)=O` [Example 220, 2-[4-[6,7-bis(2-acetamidoethoxy)quinoxalin-2-yl]-2-fluoro-phenyl]-N-[5-(2,2,2-trifluoro-1,1-dimethyl-ethyl)isoxazol-3-yl]acetamide], the Kd on KIT kinase and at FLT3 kinase was less than 5 nM throughout.
In the case of `CC(=O)N(C)CCOc1cc2ncc(-c3ccc(CC(=O)Nc4cc(C(C)(C)C(F)(F)F)on4)c(F)c3)nc2cc1OCCN(C)C(C)=O` [Example 221, 2-[4-[6,7-bis[2-[acetyl(methyl)amino]ethoxy]quinoxalin-2-yl]-2-fluoro-phenyl]-N-[5-(2,2,2-trifluoro-1,1-dimethyl-ethyl)isoxazol-3-yl]acetamide], the equilibrium dissociation constant (Kd) at KIT kinase and on FLT3 kinase was less than 5 nM in each case.
In the case of `COc1cc2nc(-c3ccc(CC(=O)Nc4cc(C5(C(F)(F)F)CC5)on4)c(F)c3)cnc2cc1OCCCS(C)(=O)=O` [Example 222, 2-[2-fluoro-4-[7-methoxy-6-(3-methylsulfonyl-propoxy)quinoxalin-2-yl]phenyl]-N-[5-[1-(trifluoromethyl)cyclo-propyl]isoxazol-3-yl]acetamide], the dissociation constant (Kd) at KIT kinase and on FLT3 kinase was less than 5 nM in each case.
Turning to `COc1cc2nc(-c3ccc(CC(=O)Nc4cc(C5(C(F)(F)F)CC5)on4)c(F)c3)cnc2cc1OCCN1CC2CC(C1)O2` [Example 223, 2-[2-fluoro-4-[7-methoxy-6-[2-(6-oxa-3-azabicyclo[3.1.1]heptan-3-yl)ethoxy]quinoxalin-2-yl]phenyl]-N-[5-[1-(trifluoromethyl)cyclo-propyl]isoxazol-3-yl]acetamide], the Kd at KIT kinase and on FLT3 kinase was less than 5 nM each time.
